According to paper PMC6658782, “The Novel Arylamidine T-2307 Selectively Disrupts Yeast Mitochondrial Function by Inhibiting Respiratory Chain Complexes” (Antimicrobial Agents and Chemotherapy, 2019):
Converted amounts (≈) assume the structure as drawn.

Legend:
[1] = target: respiratory chain complex II + III (Bos taurus, UniProt P00125+P00157+P13272); experiment: MitoCheck complex II/III activity assay, bovine heart mitochondria; type: biochemical
[2] = test system: isolated yeast mitochondria; experiment: Mitochondrial oxygen consumption (MitoXpress probe); type: biochemical, Saccharomyces cerevisiae
Protocol: S. cerevisiae from frozen stock (−80°C) was inoculated into yeast extract-peptone-glucose (YPD) medium (1% yeast extract, 2% peptone, and 2% glucose) and grown for 24 h at 30°C. The cultured cells were subcultured into yeast extract-peptone-galactose (YPGal) medium (1% yeast extract, 2% peptone, 2% galactose, and 0.1% glucose) and incubated overnight with continuous shaking at 30°C. When the optical density at 600 nm reached approximately 1.0, the cells were collected by centrifugation (3,000 × g at room temperature for 5 min). Intact mitochondria were isolated as per a previously described protocol ([35]) with minor modifications as follows. Yeast cells were converted to spheroplasts by incubation with Zymolyase-20T (Nacalai Tesque, Inc., Kyoto, Japan) (4 mg of Zymolyase-20T/g [wet weight] of cells) and disrupted using a Dounce homogenizer. The crude mitochondrial fraction was isolated by differential centrifugation ([35]). […]. The mitochondrial protein concentration was determined using the DC protein assay (Bio-Rad Laboratories, Inc., Hercules, CA, USA) following the manufacturer’s instructions. The mitochondrial stock solution was maintained on ice during the oxygen consumption experiment.
The mitochondrial oxygen consumption was measured using a phosphorescent oxygen-sensitive probe, MitoXpress-Xtra (Agilent Technologies, Santa Clara, CA, USA), as described previously ([16], [36]). Succinate was used as a respiratory substrate in this assay. […] A microplate reader, PHERAstar Plus (BMG Labtech GmbH, Ortenberg, Germany), was used to read. The time-resolved fluorescence protocol was set to read the plate at 1.5-min intervals for 60 min at an excitation wavelength of 337 nm, an emission wavelength of 665 nm, a delay time of 40 μs, and a gate time of 100 μs at 30°C.
[…]. […] For quantitative assessment, OCR was determined from the slope of the initial 7.5 min. OCR is expressed as micromolar of O2 per minute per milligram of protein.
The drug concentration was expressed as micromoles per milligram of protein. […]

[3] = target: respiratory chain complex IV (Candida albicans, UniProt P0C8K9+Q9B1P9+Q9B8D8); experiment: Respiratory chain enzymatic activity, complex IV, C. albicans; type: biochemical; settings: C. albicans mitochondria; read-out: IC50 ± SD, Complex IV
respiratory chain complex IV (Candida albicans, UniProt P0C8K9+Q9B1P9+Q9B8D8), sequence (P0C8K9 whole entry): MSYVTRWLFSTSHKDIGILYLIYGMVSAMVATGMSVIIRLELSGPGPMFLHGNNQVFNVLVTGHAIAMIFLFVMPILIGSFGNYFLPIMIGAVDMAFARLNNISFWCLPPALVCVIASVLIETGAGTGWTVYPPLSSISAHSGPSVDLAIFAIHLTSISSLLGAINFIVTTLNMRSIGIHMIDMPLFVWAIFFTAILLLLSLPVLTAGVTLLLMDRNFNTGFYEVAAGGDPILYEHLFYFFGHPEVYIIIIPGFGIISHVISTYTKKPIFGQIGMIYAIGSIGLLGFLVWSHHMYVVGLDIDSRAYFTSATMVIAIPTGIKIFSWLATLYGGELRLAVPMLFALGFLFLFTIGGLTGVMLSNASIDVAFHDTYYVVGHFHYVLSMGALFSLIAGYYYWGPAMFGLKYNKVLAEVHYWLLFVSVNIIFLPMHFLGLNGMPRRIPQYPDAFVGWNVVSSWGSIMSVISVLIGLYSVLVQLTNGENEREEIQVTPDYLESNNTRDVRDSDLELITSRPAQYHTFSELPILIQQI
respiratory chain complex IV (Candida albicans, UniProt P0C8K9+Q9B1P9+Q9B8D8), sequence (Q9B8D8 whole entry): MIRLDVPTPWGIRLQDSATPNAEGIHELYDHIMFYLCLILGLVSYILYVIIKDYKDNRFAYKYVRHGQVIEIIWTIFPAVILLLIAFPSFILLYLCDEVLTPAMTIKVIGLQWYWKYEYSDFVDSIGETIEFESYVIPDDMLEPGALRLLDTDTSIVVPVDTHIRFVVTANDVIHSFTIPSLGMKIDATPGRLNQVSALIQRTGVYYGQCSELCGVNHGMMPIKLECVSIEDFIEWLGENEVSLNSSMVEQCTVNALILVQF
respiratory chain complex IV (Candida albicans, UniProt P0C8K9+Q9B1P9+Q9B8D8), sequence (Q9B1P9 whole entry): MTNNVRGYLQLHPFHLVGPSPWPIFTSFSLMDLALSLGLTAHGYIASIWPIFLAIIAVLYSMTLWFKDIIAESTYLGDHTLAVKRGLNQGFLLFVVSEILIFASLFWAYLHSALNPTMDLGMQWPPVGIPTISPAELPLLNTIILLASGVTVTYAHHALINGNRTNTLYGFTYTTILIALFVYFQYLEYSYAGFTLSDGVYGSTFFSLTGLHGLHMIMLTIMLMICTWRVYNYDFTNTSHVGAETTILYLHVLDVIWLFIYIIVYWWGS

[4] = target: respiratory chain complex IV (Saccharomyces cerevisiae, UniProt P00401+P00410+P00420); experiment: Respiratory chain enzymatic activity, complex IV, S. cerevisiae; type: biochemical
whole yeast cells = experiment: Oxygen consumption of whole yeast cells (oxygen electrode); type: cell-based, Saccharomyces cerevisiae
NADH dehydrogenase = NADH dehydrogenase activity, C. albicans; type: biochemical, Candida albicans; settings: C. albicans mitochondria; involves complex I activity; read-out: IC50 against NADH dehydrogenase activity
[5] = target: respiratory chain complex I (Bos taurus, UniProt P03887+P17694+P42026); experiment: MitoCheck complex I activity assay, bovine heart mitochondria; type: biochemical
Protocol: The enzymatic activities of bovine heart mitochondrial respiratory chain complexes were determined using MitoCheck complex I, complex II/III, and complex IV activity assay kits (Cayman Chemical, Ann Arbor, MI, USA). Bovine heart mitochondria from these kits were used for experiments. The experiments were performed following the manufacturer’s instructions. In the experiments, 2 μM rotenone, 1 mM KCN, and both 1 mM TTFA and 5 μg/ml antimycin A served as positive controls for the inhibition of complex I, complex IV, and complexes II plus III, respectively.
In all experiments, the reaction rate of each enzyme was determined by calculating the slope of the linear portion of the curve. Complex I activity in C. albicans was calculated by subtracting the rotenone-insensitive enzymatic activity (with 10 μM rotenone) from the NADH dehydrogenase activity (without rotenone).
OCRs in isolated mitochondria and intracellular ATP levels were compared between the control and treatment groups using the parametric Dunnett’s multiple-comparison test. P values of <0.05 (comparison of multiple groups) were considered statistically significant. IC50 values were determined from dose-response curves compared with untreated control samples using a four-parameter logistic curve-fitting analysis. Data were analyzed using JMP 13.0 (SAS Institute Japan Ltd., Tokyo, Japan).

[6] = target: respiratory chain complex II + III (Saccharomyces cerevisiae, UniProt P00163+P07143+P08067); experiment: Respiratory chain enzymatic activity, complexes II plus III, S. cerevisiae; type: biochemical
C. albicans cells = settings: cited from earlier work
[7] = target: respiratory chain complex IV (Bos taurus, UniProt P00396+P00415+P68530); experiment: MitoCheck complex IV activity assay, bovine heart mitochondria; type: biochemical
C. albicans = settings: cited from earlier work
rat liver mitochondria = test system: rat liver mitochondria; set-up: method as in PMID 22948882; settings: cited from earlier work

With `N=C(N)c1ccc(OCCCC2CCN(CCCOc3ccc(C(=N)N)cc3)CC2)cc1` [T-2307] the “IC50 for complexes II plus III in bovine heart mitochondria relative to yeast mitochondria” value [1] was over 10 fold, the IC50 ([1]; bovine heart mitochondria, read-out: IC50 ± SD, Complex II + III) was over 3000 µM and the remaining activity at 3000 µM ([1]; read-out: remaining enzymatic activity of complexes II plus III) was 93%. For the same compound, the “effect on mitochondrial oxygen consumption rate (OCR)” value [2] was “dose-dependent decrease”, the IC50 [3] was 225 ± 23 µM and the IC50 [4] was 149 ± 23 µM. For the same compound, the “effect on oxygen consumption in whole yeast cells” value (whole yeast cells) was “dose-dependent inhibition of respiration”, the IC50 (NADH dehydrogenase) was 2000 µM and the IC50 ([5]; bovine heart mitochondria, read-out: IC50 ± SD, Complex I) was over 3000 µM. The remaining activity at 3000 µM ([5]; bovine, read-out: remaining enzymatic activity of complex I) was 68%, the IC50 [6] was 271 ± 37 µM and the “concentration in cells relative to extracellular medium” value (C. albicans cells) was > 3,000 fold. The “IC50 for complex IV in bovine heart mitochondria relative to yeast mitochondria” value [7] was over 10 fold, the IC50 ([7]; bovine heart mitochondria, read-out: IC50 ± SD, Complex IV) was over 3000 µM and the remaining activity at 3000 µM ([7]; read-out: remaining enzymatic activity of complex IV) was 92%. For the same compound, the MIC reported previously (C. albicans) was 4 nM (≈ 1.75 ng/mL) and the “effect on the MMP and on respiration in rat liver mitochondria” value (rat liver mitochondria) was “little effect”.
